The subject of one data set is liver function in mice. The experiment in a line: Evaluation of subacute toxicity (continuous administration, liver function). The format is in vivo. The arrangement: AST / ALP: unit not given here. To be noted: serum; male ICR mice, 200 mg/kg intragastric once a day for 4 consecutive weeks. On the procedure: Male ICR mice aged 6-8 weeks were fasted for 16 hours and randomly divided into groups, 5 mice per group. The test compound was formulated into a suspension with a 0.5% sodium carboxymethyl cellulose solution, and administered intragastrically at a concentration of 200 mg/kg, once a day for 4 consecutive weeks. After the last administration, the mice were fasted for 12 hours but were free to drink water during the fasting period. Then the mice were anesthetized. Blood was taken from the abdominal aorta and serum was prepared for the determination of blood biochemical and immunological indicators. EDTA anticoagulant blood was prepared for routine blood measurement. Except for some significant increase in transaminase (ALT, AST, […]) of some drug administration groups, there were no significant differences in other indicators among the groups.

Data set [1] deals with bleomycin-induced pulmonary fibrosis in rats. Description: Evaluation of anti-pulmonary fibrosis in vivo (bleomycin-induced). To be noted: lung tissue, 14th day. Further details: species or system SD rats. As for the experimental part:
Bleomycin (batch number: 16037911, Hisun Pfizer Co., Ltd.) was prepared into a 5 mg/mL solution with normal saline; and the test compound was prepared into a solution with a 0.5% sodium carboxymethyl cellulose solution to a certain concentration for later use.
Adult male SD rats were randomly divided into a normal control group, a model group and a drug treatment group. After the animals in each group were anesthetized by intraperitoneal injection of 20% urethane (10 mL/kg), they were incised in the middle of the neck to expose the trachea. The rats in the normal control group were injected with 0.2 ml normal saline into the trachea all at once, and intragastrically administrated with 0.5% sodium carboxymethyl cellulose solution (0.5 ml/100 g, 1 time/day) the next day. The rats in the model group were injected with 0.2 ml of bleomycin solution into the trachea all at once, and simultaneously intragastrically administrated with 0.5% sodium carboxymethyl cellulose solution (0.5 ml/100 g, 1 time/day). The rats in the drug treatment group were injected with 0.2 ml bleomycin solution into the trachea all at once and simultaneously intragastrically administrated with the 0.5% sodium carboxymethyl cellulose solution of the test compound at different concentrations (0.5 ml/100 g, 1 time/day). The rats in each group were bred in an air-conditioned animal laboratory with a temperature of (23±1)° C. and a relative humidity of (45±5)%, with day and night alternating every 12 hours, and they were free to eat and drink. The rats were fasted for 12 hours on the 14th day after administration. After anesthesia, the blood of the rat was collected from the femoral artery and the lung tissue was separated. The right lung was perfused with 10% neutral formaldehyde through the trachea and then was put into stationary liquid for fixation and pathological examination. The left lung was cryopreserved in a refrigerator at -80° C. for testing the biochemical indicators.
The contents of HYP, MDA, GSH and SOD in lung tissues were detected according to the corresponding operation steps of ELISA kit (Nanjing Jiancheng Biological Company).

Data set [2] concerns CCl4 induced liver fibrosis in rats. Description: Evaluation of anti-liver fibrosis in vivo (CCl4 induced liver injury/fibrosis). Further details: species or system SD rats. The settings on record: test compound 10 mg/ml, 0.5 ml/100 g intragastric 1 time/day, 8 weeks; for GSH-PX / HYP / MDA / SOD: liver tissue, ELISA kit, CCl4 rats; for ALP / ALT / AST / LDH: serum, male SD rats, 40% CCl4 oil i.p. 1 time/3 days. As for the experimental part:
CCl4 was prepared into a 40% CCl4 oil with commercially available non-genetically modified peanut oil. The test compound was prepared into a 10 mg/ml solution with a 0.5% sodium carboxymethyl cellulose solution, for later use.
Adult male SD rats were randomly divided into a normal control group, a model group and a drug treatment group. The rats in the normal control group were intraperitoneally injected with peanut oil (0.3 ml/100 g, 1 time/3 days), and intragastrically administrated with 0.5% sodium carboxymethyl cellulose solution (0.5 ml/100 g, 1 time/1 day). The rats in the model group were intraperitoneally injected with 40% CCl4 oil (0.3 ml/100 g, 1 time/3 days), and intragastrically administrated with 0.5% sodium carboxymethyl cellulose solution (0.5 ml/100 g, 1 time/day). The rats in the drug treatment group were intraperitoneally injected with 40% CCl4 oil (0.3ml/100 g, 1 time/3 days), and intragastrically administrated with the 0.5% sodium carboxymethyl cellulose solution of the test compound (0.5 ml/100 g, 1 time/day). Rats in each group were bred in an air-conditioned animal laboratory with a temperature of (23±1)° C. and a relative humidity of (45±5)%, with day and night alternating every 12 hours, and they were free to eat and drink.
After being fed for 8 weeks, all the rats were fasted for 12 hours. After anesthesia, the blood of the rat was collected from the femoral artery, and the whole liver tissue was quickly weighed and frozen in liquid nitrogen for later use. 3 rats in each group were taken and their livers were cut, soaked into formalin solution for 24 h and prepared to paraffin-embedded pathological sections. The whole blood of the rats was centrifuged at 3000 r/min for 10min to obtain the separated serum, which was then frozen and stored for later use.
Alanine aminotransferase (ALT), aspartate aminotransferase (AST), alkaline phosphatase (ALP), and lactate dehydrogenase (LDH) in the serum were measured by Hitachi 7600 automatic biochemical analyzer.
The concentration of hydroxyproline (HYP) or malondialdehyde (MDA), and the activity of superoxide dismutase (SOD) or glutathione peroxidase(GSH-Px) in liver tissues were detected according to the corresponding operation steps of ELISA kit (Nanjing Jiancheng Biological Company).
Background: ELISA stands for enzyme-linked immunosorbent assay.

The mark [3] stands for this setting: dose 50 mg/kg intragastric 1 time/day.
[4] abbreviates: dose 100 mg/kg intragastric 1 time/day.

Regarding `COc1ccc(/C=C/c2cc(OC)cc(OCCCC(C)(C)C(=O)O)c2)cc1` [Compound I-1b, 3,4′-dimethoxy-5-(4-methyl-4-carboxypentyloxy)-(E)-stilbene], in the data set with liver function in mice, the ALP is 471.35 ± 29.88, the ALT came to 47.33 ± 10.61 U/L and the AST is listed as 161.6 ± 18.32. Also, in data set [1] (setting [3]), the HYP is 0.71 ± 0.17 μg/mg protein and the MDA was determined as 0.91 ± 0.05 nmol/mg protein. In data set [1] (setting [4]), this compound came in with an HYP of 0.54 ± 0.12 μg/mg protein and an MDA of 0.84 ± 0.09 nmol/mg protein. Further, in data set [2], the GSH-PX stood at 204.78 ± 27.75 U/mg protein, the HYP stood at 0.59 ± 0.06 μg/mg protein, the MDA is 0.72 ± 0.12 nmol/mg protein and the SOD is reported as 29.99 ± 5.24 U/mg protein. In data set [2], this compound showed an ALP of 149.9 ± 52.9 U/L, an ALT of 85.3 ± 46.4 U/L, an AST of 209.1 ± 63.2 U/L and an LDH of 843.1 ± 247.9 U/L.

In the case of `[2H]C([2H])([2H])Oc1ccc(/C=C/c2cc(OCCCC(C)(C)C(=O)O)cc(OC([2H])([2H])[2H])c2)cc1` [Compound I-2b, 3,4′-bis-[(trideuteratedmethyl)-oxy]-5-(4-methyl-4-carboxypentyloxy)-(E)-stilbene], in the data set on liver function in mice, the ALP is given as 242.83 ± 83.29, the ALT came out at 26.47 ± 6.79 U/L and the AST was 105.33 ± 16.85. Besides, in data set [1] (setting [3]), the HYP came out at 0.52 ± 0.11 μg/mg protein and the MDA stood at 0.75 ± 0.13 nmol/mg protein. For the same compound, in data set [1] (setting [4]), the HYP was determined as 0.45 ± 0.08 μg/mg protein and the MDA came to 0.76 ± 0.06 nmol/mg protein. In addition, in data set [2], the GSH-PX was 231.48 ± 58.72 U/mg protein, the HYP turned out to be 0.58 ± 0.29 μg/mg protein, the MDA was determined as 0.70 ± 0.08 nmol/mg protein and the SOD was 33.60 ± 7.64 U/mg protein. In data set [2], this compound yielded an ALP of 141.6 ± 27.6 U/L, an ALT of 69.1 ± 23.3 U/L, an AST of 192.4 ± 78.4 U/L and an LDH of 836.5 ± 375.5 U/L.

In the case of `[2H]C([2H])([2H])Oc1ccc(/C=C/c2cc(OC)cc(OCCCC(C)(C)C(=O)O)c2)cc1` [Compound I-3b, 3-methoxy-4′-trideuterated methoxy-5-(4-methyl-4-carboxypentyloxy)-(E)-stilbene], in the data set with liver function in mice, the ALP is listed as 381.67 ± 221.42, the ALT was 36.57 ± 10.40 U/L and the AST amounted to 138.32 ± 29.72. In data set [1] (setting [3]), this compound yielded an HYP of 0.51 ± 0.09 μg/mg protein and an MDA of 0.81 ± 0.09 nmol/mg protein. Further, in data set [1] (setting [4]), the HYP was found to be 0.47 ± 0.10 μg/mg protein and the MDA came to 0.73 ± 0.06 nmol/mg protein. In data set [2], the GSH-PX is 194.09 ± 32.82 U/mg protein, the HYP came out at 0.70 ± 0.61 μg/mg protein, the MDA came out at 0.92 ± 0.43 nmol/mg protein and the SOD stood at 31.33 ± 6.50 U/mg protein. In data set [2], this compound showed an ALP of 154.3 ± 65.0 U/L, an ALT of 79.9 ± 43.8 U/L, an AST of 221.9 ± 109.4 U/L and an LDH of 780.4 ± 152.3 U/L.

In the case of `[2H]C([2H])([2H])Oc1cc(/C=C/c2ccc(OC)cc2)cc(OCCCC(C)(C)C(=O)O)c1` [Compound I-4b, 3-trideuterated methoxy-4′-methoxy-5-(4-methyl-4-carboxypentyloxy)-(E)-stilbene], in the data set on liver function in mice, the ALP is on record as 258.33 ± 219.45, the ALT turned out to be 16.07 ± 2.45 U/L and the AST turned out to be 72.73 ± 15.82. In data set [1] (setting [3]), this compound came in with an HYP of 0.74 ± 0.19 μg/mg protein and an MDA of 0.96 ± 0.19 nmol/mg protein. In data set [1] (setting [4]), this compound came in with an HYP of 0.59 ± 0.12 μg/mg protein and an MDA of 0.78 ± 0.24 nmol/mg protein. Also, in data set [2], the GSH-PX is 224.33 ± 2.16 U/mg protein, the HYP is on record as 0.68 ± 0.27 μg/mg protein, the MDA is recorded as 0.77 ± 0.14 nmol/mg protein and the SOD was found to be 28.64 ± 6.33 U/mg protein. In addition, in data set [2], the ALP came to 140.8 ± 60.2 U/L, the ALT was determined as 91.3 ± 32.5 U/L, the AST was determined as 233.5 ± 90.6 U/L and the LDH is reported as 771.1 ± 210.2 U/L.

As to `Oc1ccc(C=Cc2cc(O)cc(O)c2)cc1` [Resveratrol], in data set [1] (setting [4]), the HYP is 0.75 ± 0.34 μg/mg protein and the MDA is 0.92 ± 0.33 nmol/mg protein. In data set [2], the GSH-PX came to 174.33 ± 40.75 U/mg protein, the HYP is 0.93 ± 0.15 μg/mg protein, the MDA was 1.17 ± 0.35 nmol/mg protein and the SOD was 28.09 ± 4.55 U/mg protein. In data set [2], this compound came in with an ALP of 203.6 ± 43.9 U/L, an ALT of 96.8 ± 41.9 U/L, an AST of 205.33 ± 85.3 U/L and an LDH of 846.5 ± 261.2 U/L.

(Values after patent US20220185764A1, “Resveratrol derivative and anti-fibrotic method using the same” (TAIZHOU HUAYUAN MEDICINAL TECH CO. LTD., priority 2020, published 2022).)
